{
  "source": "patent US7244741B2",
  "about": "“Fredericamycin derivatives as medicaments for treating tumours” (Biofrontera Discovery GmbH, priority 2002, dated 2007)",
  "data": [
    {"tested_on": "12 cancer cell lines: LCL (H460/lung), MACL (MCF7, breast), LXFL (529L, lung), LXFA (629L, lung), MEXF (462NL, melanoma), MEXF (514L, melanoma), MAXF (401NL …)", "experiment": "Biological activity against 12 cancer cell lines (IC70 averaged over all cell lines)", "assay_type": "cell-based", "settings": "mean over 12 cancer cell lines; 5 test concentrations", "procedure": "Biological Activity Against 12 Cancer Cell Lines: LCL (H460/lung), MACL (MCF7, breast), LXFL ([…], lung), LXFA ([…], lung), MEXF (462NL, melanoma), MEXF ([…], melanoma), MAXF (401NL, breast), RXF ([…], renal), RXF ([…], renal), UXF ([…], uterus), […]1). Efficacy (IC70), averaged over all cell lines in μg/ml with 5 test concentrations.", "units": {"Efficacy (IC70), averaged over all cell lines": "µg/mL"}, "values": [
      {"smiles": "N.N.[Cl][Pt][Cl]", "note": "[Cisplatin]", "Efficacy (IC70), averaged over all cell lines": 37.1020},
      {"smiles": "C/C=C/C=C/c1cc2cc3c(c(O)c2c(=O)[nH]1)C1(CC3)C(=O)c2c(O)c3c(c(O)c2C1=O)C(=O)C(OC)=CC3=O", "note": "(stereo not shown) [Fredericamycin]", "Efficacy (IC70), averaged over all cell lines": 0.2790},
      {"smiles": "C/C=C/C=C/c1cc2cc3c(c(O)c2c(=O)[nH]1)[C@@]1(C(=O)c2c(O)c4c(c(O)c2C1=O)C(=O)C(OC)=CC4=O)C(SCCO)C3", "note": "(stereo partly drawn) [Example 3, (8S)-4′,9,9′-trihydroxy-6′-methoxy-7(2-hydroxyethylmercapto)-3-[(1E,3E)-penta-1,3-dienyl]-6,7-dihydrospiro[cyclopenta[g]isoquinoline-8,2′-cyclopenta[b]-napthalene]-1,1′-3′,5′,8′(2H)-pentone]", "Efficacy (IC70), averaged over all cell lines": 0.1340},
      {"smiles": "COc1cccc2c1C(=O)c1c(O)c3c(c(O)c1C2=O)C[C@@](O)(C(=O)CO)C[C@@H]3O[C@H]1C[C@H](N)[C@H](O)[C@H](C)O1", "note": "[Adriamycin]", "Efficacy (IC70), averaged over all cell lines": 0.0210}
    ]}
  ]
}
